Test results published in patent US6642205B2, “Methods and compositions for reducing side effects in chemotherapeutic treatments” (Pro-Pharmaceuticals, Inc., priority 2000, dated 2003).

Legend:
[1] = Side effects (deaths) after single dose intravenous injection in healthy mice, 20 days observation; format: in vivo, male BDF1 mice; conditions: for Deaths per group / Life span after treatment (except survived animals): single i.v.; for Deaths per group: six animals each; for Life span after treatment (except survived animals): one value per dead animal; for toxicity compared to Adriamycin: healthy mice, single i.v. dose
Text: (§1) Male BDF1 mice were used as the experimental animals for measuring side effects of therapeutic preparations. Mice were acclimated in the laboratory one week prior to experimentation. The animals were housed five per cage in a 12-hour light/dark cycle. The animals received filtered water and sterile rodent food ad libitum. The animals were observed daily and clinical signs were noted. Weight of the animals was in the range of 19-21 g at the day of treatment initiation. The mice were healthy, not previously used in other experimental procedures.

[2] = test system: lymphocyte leukemia P-388; assay: Antitumor effect on subcutaneously implanted lymphocyte leukemia P-388 in mice, single i.v. injection; format: in vivo, male BDF1 mice; conditions: for Average weight gain/loss from day 1 to day 7 / Nonspecific deaths per group / Average survival time, excluding nonspecific deaths / Average survival time, including nonspecific deaths / average weight loss of an animal: single i.v.; for Nonspecific deaths per group / animals that lived longer than the duration of the study (20 days): six animals per group; for Average survival time, excluding nonspecific deaths / Average survival time, including nonspecific deaths: study duration 20 days; for toxicity compared to Adriamycin: tumor-bearing mice, nonspecific deaths
Experimental: “Nonspecific death” is death of a treated tumor-bearing animal if its day of death was statistically less (P≦0.05) than the corresponding day of death of a tumor-bearing animal in the untreated control group.
The response of subcutaneously implanted lymphocyte leukemia P-388 (Arthur D. Little Inc., Cambridge, Mass.) to treatment with a Galactomycin I, Galactomycin II, and Doxorubicin was evaluated in male BDF1 mice.
as §1, with “Mice” for “Male BDF1 mice were used as the experimental animals for measuring side effects of therapeutic preparations. Mice”
There were a total of twelve groups, 10 animals in two control groups (saline only), and six animals in each in 10 agent treatment groups. The groups were treated 24 hours after tumor implantation, as follows:
Tumor cells were implanted in a sub-cutaneous injection of one million cells per mouse and allowed to grow for 24 hours. After that, Adriamycin, Galactomycin I and Galactomycin II were administered as 0.7-10 mg/mL solutions by a single i.v. injection.
Study duration was twenty days after tumor implantation, or nineteen days after treatment initiation.

Structure (SMILES) | Average weight gain/loss from day 1 to day 7 ([2]; dose 7 mg/kg) | Nonspecific deaths per group ([2]; dose 7 mg/kg) | Average survival time, excluding nonspecific deaths ([2]; dose 7 mg/kg) [days] | Average survival time, including nonspecific deaths ([2]; dose 7 mg/kg) [days] | Average weight gain/loss from day 1 to day 7 ([2]; dose 14 mg/kg) | Average survival time, excluding nonspecific deaths ([2]; dose 14 mg/kg) [days] | Average survival time, including nonspecific deaths ([2]; dose 14 mg/kg) [days] | Deaths per group ([1]; dose 15 mg/kg) | Deaths per group ([1]; dose 20 mg/kg) | Deaths per group ([1]; dose 25 mg/kg) | Deaths per group ([1]; dose 30 mg/kg) | Deaths per group ([1]; dose 40 mg/kg) | Deaths per group ([1]; dose 80 mg/kg) | Deaths per group ([1]; dose 100 mg/kg) | toxicity compared to Adriamycin [1] | LD50 (estimated from Table 2 data) ([1]; single injection in mice) [mg/kg] | Nonspecific deaths per group ([2]; dose 14 mg/kg) | Average weight gain/loss from day 1 to day 7 ([2]; dose 40 mg/kg) [g] | Average survival time, excluding nonspecific deaths ([2]; dose 40 mg/kg) [days] | Average survival time, including nonspecific deaths ([2]; dose 40 mg/kg) [days] | other results
COc1cccc2c1C(=O)c1c(O)c3c(c(O)c1C2=O)C[C@@](O)(C(=O)CO)C[C@@H]3O[C@H]1C[C@H](N)[C@H](O)[C@H](C)O1 [Adriamycin, 14-hydroxydaunomycin, reference compound] | -0.5 g | 0 | 15.5 | 15.5 | -1.8 g | >19 | > 15 | – | – | – | – | – | – | – | – | – | – | – | – | – | Deaths per group ([1]; dose 21 mg/kg): Three; Deaths per group ([1]; dose 21 mg/kg, listed as Doxorubicin): 3; LD50 at 20 days ([1]; male, BDF1, mouse, in vivo, intravenous, 21 mg/kg, single injection in mice, read-out: LD50 (estimated from Table 2 data)): ~21 mg/kg; average weight loss of an animal ([2]; dose 14 mg/kg): 1.8 g; animals that lived longer than the duration of the study (20 days) ([2]; dose 14 mg/kg): two
COc1cccc2c1C(=O)c1c(O)c3c(c(O)c1C2=O)CC(O)(C(=O)CO)CC3OC1CC(NCC(O)C(O)C(O)C(O)COC2OC(CO)C(O)C(O)C2O)C(O)C(C)O1 [Galactomycin I, N-[α-D-galactopyranosyl-(1→6)-β-O-D-sorbityl]doxorubicin] | +1.7 g | 0 | 11.7 | 11.7 | +2.3 g | 12.2 | 12.2 | 0 | 0 | 0 | 0 | 1 | 6 | 6 | significantly less toxic | 50 to 60 | 0 | -0.9 | >18 | > 16 | Deaths per group ([1]; dose 10 mg/kg): 0; Life span after treatment (except survived animals) ([1]; dose 40 mg/kg): 2 days; Average weight gain/loss from day 1 to day 7 ([2]; dose 20 mg/kg): -0.8 g; Nonspecific deaths per group ([2]; dose 20 mg/kg): 0; Average survival time, excluding nonspecific deaths ([2]; dose 20 mg/kg): 16.3 days; Average survival time, including nonspecific deaths ([2]; dose 20 mg/kg): 16.3 days; average weight loss of an animal ([2]; dose 40 mg/kg): 0.9 g; animals that lived longer than the duration of the study (20 days) ([2]; dose 40 mg/kg): two; toxicity compared to Adriamycin [2]: significantly less toxic
Br.COc1cccc2c1C(=O)c1c(O)c3c(c(O)c1C2=O)CC(O)(C(=O)CO)CC3OC1CC(NCC(O)C(O)C(OC2OC(CO)C(O)C(O)C2O)C(O)CO)C(O)C(C)O1 [Galactomycin II, N-[β-D-galactopyranosyl-(1→4)-β-O-D-sorbityl]doxorubicin] | +4.3 g | 0 | 11.7 | 11.7 | +0.8 g | 12.0 | 12.0 | 0 | 0 | 0 | 0 | 0 | 1 | 3 | significantly less toxic | ~100 | 0 | -1.1 | 15.0 | 15.0 | Deaths per group ([1]; dose 50 mg/kg): 0; Life span after treatment (except survived animals) ([1]; dose 80 mg/kg): 2 days; Nonspecific deaths per group ([2]; dose 40 mg/kg): 0; Average weight gain/loss from day 1 to day 7 ([2]; dose 80 mg/kg): -1.0 g; average weight loss of an animal ([2]; dose 80 mg/kg): 1.0 g; Average survival time, excluding nonspecific deaths ([2]; dose 80 mg/kg): >18 days; Average survival time, including nonspecific deaths ([2]; dose 80 mg/kg): > 16 days; animals that lived longer than the duration of the study (20 days) ([2]; dose 80 mg/kg): two; toxicity compared to Adriamycin [2]: significantly less toxic
